Test results published in PubChem BioAssay (NCI).
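Each compound was tested at five concentrations against cells in 96-well plates for 48 hours. TGI: concentration producing complete growth inhibition.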

How the values were obtained:
Experiment in all cases: NCI anticancer screen, dose series, 48 h
[1] = system: SF-268 CNS
[2] = system: M19-MEL melanoma
[3] = system: UO-31 renal
[4] = system: RPMI-8226 leukemia
[5] = system: SNB-78 CNS
[6] = system: KM20L2 colon
[7] = system: SK-MEL-28 melanoma
[8] = system: SF-539 CNS
[9] = system: A549 NSCLC
[10] = system: DMS 114 small cell lung
[11] = system: KM12 colon
[12] = system: HOP-18 NSCLC
[13] = system: OVCAR-3 ovarian
[14] = system: ACHN renal
[15] = system: OVCAR-4 ovarian
[16] = system: IGROV1 ovarian
[17] = system: NCI-H460 lung
[18] = system: NCI-H23 lung
[19] = system: TK-10 renal
[20] = system: NCI-H226 lung
[21] = system: SK-MEL-5 melanoma
[22] = system: HCC-2998 colon
[23] = system: SK-MEL-2 melanoma
[24] = system: MALME-3M melanoma
[25] = system: HCT-15 colon
[26] = system: XF 498 CNS
[27] = system: LXFL 529 NSCLC
[28] = system: K-562 leukemia
[29] = system: CAKI-1 renal
[30] = system: HL-60(TB) leukemia
[31] = system: SW-620 colon
[32] = system: OVCAR-5 ovarian
[33] = system: MOLT-4 leukemia
[34] = system: A498 renal
[35] = system: HOP-92 NSCLC
[36] = system: HT29 colon
[37] = system: SN12C renal
[38] = system: COLO 205 colon
[39] = system: HOP-62 NSCLC
[40] = system: SK-OV-3 ovarian
[41] = system: 786-0 renal
[42] = system: NCI-H522 lung
[43] = system: UACC-257 melanoma
[44] = system: HCT-116 colon
[45] = system: SNB-19 CNS
[46] = system: SNB-75 CNS
[47] = system: EKVX NSCLC
[48] = system: SF-295 CNS
[49] = system: UACC-62 melanoma
[50] = system: CCRF-CEM leukemia
[51] = system: M14 melanoma
[52] = system: DLD-1 colon
[53] = system: DMS 273 small cell lung
[54] = system: SR leukemia
[55] = system: U251 CNS
[56] = system: OVCAR-8 ovarian
[57] = system: RXF 393 renal
[58] = system: LOX IMVI melanoma

COc1ccc(S(=O)(=O)N/N=C(\C)CN2C(=O)c3ccccc3C2=O)cc1OC
TGI [1]: > 100 µM | TGI [2]: > 100 µM | TGI [3]: > 100 µM | TGI [4]: > 100 µM | TGI [5]: > 100 µM | TGI [6]: > 100 µM | TGI [7]: > 100 µM | TGI [8]: > 100 µM | TGI [9]: > 100 µM | TGI [10]: > 100 µM | TGI [11]: > 100 µM | TGI [12]: > 100 µM | TGI [13]: > 100 µM | TGI [14]: > 100 µM | TGI [15]: > 100 µM | TGI [16]: > 100 µM | TGI [17]: > 100 µM | TGI [18]: > 100 µM | TGI [19]: > 100 µM | TGI [20]: > 100 µM | TGI [21]: > 100 µM | TGI [22]: > 100 µM | TGI [23]: > 100 µM | TGI [24]: > 100 µM | TGI [25]: > 100 µM | TGI [26]: > 100 µM | TGI [27]: > 100 µM | TGI [28]: > 100 µM | TGI [29]: > 100 µM | TGI [30]: > 100 µM | TGI [31]: > 100 µM | TGI [32]: > 100 µM | TGI [33]: > 100 µM | TGI [34]: > 100 µM | TGI [35]: > 100 µM | TGI [36]: > 100 µM | TGI [37]: > 100 µM | TGI [38]: > 100 µM | TGI [39]: > 100 µM | TGI [40]: > 100 µM | TGI [41]: > 100 µM | TGI [42]: > 100 µM | TGI [43]: > 100 µM | TGI [44]: > 100 µM | TGI [45]: > 100 µM | TGI [46]: > 100 µM | TGI [47]: > 100 µM | TGI [48]: > 100 µM | TGI [49]: > 100 µM | TGI [50]: > 100 µM | TGI [51]: > 100 µM | TGI [52]: > 100 µM | TGI [53]: > 100 µM | TGI [54]: > 100 µM | TGI [55]: > 100 µM | TGI [56]: > 100 µM

O=C1C(Cl)C(c2ccc(O)cc2)N1n1cnc2ccccc2c1=O (stereo not drawn)
TGI [1]: > 100 µM | TGI [2]: 46.9 µM | TGI [3]: > 100 µM | TGI [4]: 57.7 µM | TGI [5]: > 100 µM | TGI [6]: > 100 µM | TGI [7]: 70.2 µM | TGI [8]: > 100 µM | TGI [9]: > 100 µM | TGI [10]: > 81 µM | TGI [11]: > 100 µM | TGI [12]: > 100 µM | TGI [13]: > 90.1 µM | TGI [14]: 25.6 µM | TGI [15]: > 94 µM | TGI [16]: > 100 µM | TGI [17]: > 100 µM | TGI [18]: > 96.3 µM | TGI [57]: 35.7 µM | TGI [19]: > 100 µM | TGI [20]: > 100 µM | TGI [21]: > 100 µM | TGI [22]: > 100 µM | TGI [23]: > 63.8 µM | TGI [24]: > 83.9 µM | TGI [25]: > 100 µM | TGI [26]: > 66.8 µM | TGI [27]: 39.5 µM | TGI [28]: > 100 µM | TGI [29]: > 60.3 µM | TGI [30]: 72.3 µM | TGI [31]: 47.8 µM | TGI [32]: > 100 µM | TGI [33]: 93.4 µM | TGI [34]: > 100 µM | TGI [35]: > 100 µM | TGI [36]: > 68.8 µM | TGI [37]: > 100 µM | TGI [38]: 58.4 µM | TGI [39]: > 100 µM | TGI [58]: 45.3 µM | TGI [40]: > 100 µM | TGI [41]: > 100 µM | TGI [42]: 32.6 µM | TGI [43]: > 100 µM | TGI [44]: 33 µM | TGI [45]: > 100 µM | TGI [46]: > 100 µM | TGI [47]: > 100 µM | TGI [48]: > 100 µM | TGI [49]: 48.4 µM | TGI [50]: > 100 µM | TGI [51]: 96.8 µM | TGI [52]: 55.3 µM | TGI [53]: > 100 µM | TGI [54]: 69.8 µM | TGI [55]: > 100 µM | TGI [56]: 26 µM

Nc1[nH]c(=O)nc2c1cnn2COCCO
TGI [1]: > 100 µM | TGI [3]: > 100 µM | TGI [4]: > 100 µM | TGI [5]: > 100 µM | TGI [6]: 6.85 µM | TGI [7]: > 100 µM | TGI [8]: > 100 µM | TGI [9]: > 100 µM | TGI [10]: > 100 µM | TGI [11]: > 100 µM | TGI [12]: > 100 µM | TGI [14]: > 100 µM | TGI [15]: > 100 µM | TGI [16]: > 100 µM | TGI [17]: > 100 µM | TGI [18]: 53.2 µM | TGI [57]: 93.7 µM | TGI [19]: 99.9 µM | TGI [20]: 6.36 µM | TGI [21]: > 100 µM | TGI [23]: > 100 µM | TGI [24]: > 100 µM | TGI [25]: > 100 µM | TGI [26]: > 100 µM | TGI [27]: > 100 µM | TGI [28]: > 100 µM | TGI [29]: > 100 µM | TGI [30]: > 100 µM | TGI [31]: > 100 µM | TGI [32]: 73.6 µM | TGI [33]: > 100 µM | TGI [34]: > 100 µM | TGI [35]: > 100 µM | TGI [36]: > 100 µM | TGI [37]: > 100 µM | TGI [38]: > 100 µM | TGI [58]: > 100 µM | TGI [43]: > 100 µM | TGI [44]: > 100 µM | TGI [45]: > 100 µM | TGI [46]: > 100 µM | TGI [47]: > 100 µM | TGI [48]: > 100 µM | TGI [50]: > 100 µM | TGI [51]: > 100 µM | TGI [52]: > 100 µM | TGI [53]: > 100 µM | TGI [54]: > 100 µM | TGI [55]: 52.8 µM | TGI [56]: > 100 µM

COP12(OC)NC(=O)OC1(C(F)(F)F)c1ccccc1O2 (stereo not drawn)
TGI [1]: > 100 µM | TGI [2]: > 100 µM | TGI [5]: > 100 µM | TGI [7]: > 100 µM | TGI [8]: > 100 µM | TGI [9]: > 100 µM | TGI [10]: > 100 µM | TGI [11]: > 100 µM | TGI [12]: > 100 µM | TGI [13]: > 100 µM | TGI [14]: > 100 µM | TGI [15]: > 100 µM | TGI [16]: > 100 µM | TGI [17]: > 100 µM | TGI [18]: > 100 µM | TGI [57]: > 100 µM | TGI [19]: > 100 µM | TGI [20]: > 100 µM | TGI [21]: > 100 µM | TGI [23]: > 100 µM | TGI [24]: > 100 µM | TGI [25]: > 100 µM | TGI [26]: > 100 µM | TGI [27]: > 100 µM | TGI [28]: > 100 µM | TGI [30]: > 100 µM | TGI [33]: > 100 µM | TGI [36]: > 100 µM | TGI [37]: > 100 µM | TGI [58]: > 100 µM | TGI [40]: > 100 µM | TGI [41]: > 100 µM | TGI [42]: > 100 µM | TGI [43]: > 100 µM | TGI [44]: > 100 µM | TGI [45]: > 100 µM | TGI [46]: > 100 µM | TGI [48]: > 100 µM | TGI [49]: > 100 µM | TGI [50]: > 100 µM | TGI [51]: > 100 µM | TGI [52]: > 100 µM | TGI [53]: > 100 µM | TGI [56]: > 100 µM
